Like-named read-outs stand apart in the source and are kept apart here.
Legend:
[1] = system: PKMYT1 (CDK1 pThr14) in FUOV1 cells; experiment: PKMYT1 cell-based activity assay, CDK1 pThr14 AlphaLISA in FUOV1 cells; details: read-out: FUOV-1 CDK1 pThr14 IC50
In short: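 IC50 was derived from AlphaLISA signal (excitation 680 nm, emission 615 nm) for phospho-Thr14 CDK1 in lysates. The detection antibodies were rabbit anti-pThr14 and mouse anti-total CDK1, each at 5 nM. FUOV1 ovarian cells were exposed to compound for 2 hours before lysis.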

[2] = molecular target: recombinant human Myt1 (full length PKMYT1) (Homo sapiens (Human), UniProt Q99640); experiment: Recombinant human Myt1 kinase assay (ADP-Glo); type: biochemical; details: 10 μM ATP
In short: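 ADP-Glo luminescence measured ATP hydrolysis by recombinant full-length PKMYT1 (18 nM) after 60 min at 30 °C with 10 μM ATP. Compounds in 0.5% DMSO were added to the enzyme 15 min before ATP, at 22 °C, in HEPES/MgCl2/MnCl2 buffer. IC50 and percent maximal inhibition were derived.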

recombinant human Myt1 (full length PKMYT1), sequence (Q99640 whole entry): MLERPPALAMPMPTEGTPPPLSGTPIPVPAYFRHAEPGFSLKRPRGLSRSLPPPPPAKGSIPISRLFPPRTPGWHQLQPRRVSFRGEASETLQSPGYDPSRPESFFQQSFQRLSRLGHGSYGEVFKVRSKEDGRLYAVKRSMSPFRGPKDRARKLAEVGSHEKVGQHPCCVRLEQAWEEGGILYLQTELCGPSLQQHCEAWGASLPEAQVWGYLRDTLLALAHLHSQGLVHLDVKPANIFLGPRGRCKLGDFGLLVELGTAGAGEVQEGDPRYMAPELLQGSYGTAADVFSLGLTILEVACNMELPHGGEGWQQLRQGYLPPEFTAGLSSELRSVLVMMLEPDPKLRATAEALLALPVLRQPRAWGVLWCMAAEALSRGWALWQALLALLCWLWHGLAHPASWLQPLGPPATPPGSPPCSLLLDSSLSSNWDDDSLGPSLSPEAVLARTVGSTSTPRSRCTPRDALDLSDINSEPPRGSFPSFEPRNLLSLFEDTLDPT

| Structure (SMILES) | IC50 ([1]; 2 h, 2 h incubation) [nM] | IC50 [2] [nM] | IC50 ([1]; 2 h, 2 h compound incubation) [nM] | IC50 ([1]; 2 h incubation) [nM] | IC50 ([1]; 2 h, 2 hours with compound) [nM] |
| --- | --- | --- | --- | --- | --- |
| Cc1ccc2[nH]ncc2c1-c1cc(-c2ccnc(Sc3ccccc3)n2)nc(C(N)=O)c1N [Compound 177, 3-amino-4-(5-methyl-1H-indazol-4-yl)-6-(2-(phenylthio)pyrimidin-4-yl)picolinamide] | 346 | 13 | – | – | – |
| Cc1ccc2[nH]ncc2c1-c1nc(-c2ccccc2NC(=O)C2(C)CC(F)(F)C2)nc(C(N)=O)c1N [Compound 462] | – | 4 | 137 | – | – |
| Cc1ccc2[nH]ncc2c1-c1nc(-c2cccnc2NCC2CCCCO2)nc(C(N)=O)c1N (stereo not shown) [Compound 604] | – | 16 | 794 | – | – |
| Cc1ccc(NC(=O)C2(C)CC2)c(-c2nc(C(N)=O)c(N)c(-c3c(C)ccc4[nH]ncc34)n2)c1 [Compound 437] | – | 8 | 59 | – | – |
| Cc1ccc2[nH]ncc2c1-c1nc(-c2cc(F)c(F)cc2NS(=O)(=O)C2CC2)nc(C(N)=O)c1N [Compound 480] | – | 5 | 158 | – | – |
| Cc1ccc(O)c(C)c1-c1cc(-c2ccnnc2)nc(C(N)=O)c1N [Compound 63] | – | 5 | – | 40 | – |
| Cc1ccc(O)c(C)c1-c1cc(-c2ccnc(N)c2)nc(C(N)=O)c1N [Compound 14] | – | 4 | – | 132 | – |
| Cc1ccc2[nH]ncc2c1-c1nc(-c2ccccc2NC(=O)C2(C)CC2)nc(C(N)=O)c1N [Compound 401] | – | 5 | 4 | – | – |
| Cc1ccc2[nH]ncc2c1-c1cc(-c2ccnc(OC3CNC3)n2)nc(C(N)=O)c1N [Compound 194] | 476 | 10 | – | – | – |
| Cc1nccc(Nc2cc(F)ccc2-c2nc(C(N)=O)c(N)c(-c3c(C)ccc4[nH]ncc34)n2)n1 [Compound 525] | – | 5 | 19 | – | – |
| COCCNc1ccccc1-c1nc(C(N)=O)c(N)c(-c2c(C)ccc3[nH]ncc23)n1 [Compound 464] | – | 3 | 370 | – | – |
| Cc1ccc2[nH]ncc2c1-c1cc(-c2csc(OC3COC3)n2)nc(C(N)=O)c1N [Compound 224] | 252 | 40 | – | – | – |
| Cc1ccc2[nH]ncc2c1-c1nc(-c2cn(CC3CC3)nc2NC2CCOCC2)nc(C(N)=O)c1N [Compound 892] | – | 15 | – | – | 589 |
| Cc1ccc2[nH]ncc2c1-c1cc(-c2ccnc(OC3CCOCC3)n2)nc(C(N)=O)c1N [Compound 169] | 120 | 8 | – | – | – |
| Cc1ccc2[nH]ncc2c1-c1nc(-c2ccccc2NCC(F)(F)F)cc(C(N)=O)c1N [Compound 413] | – | 5 | 184 | – | – |
| Cc1ccc2[nH]ncc2c1-c1nc(-c2cc(C(F)(F)F)ccc2NC(=O)C2(C)CC2)nc(C(N)=O)c1N [Compound 445] | – | 38 | 1030 | – | – |
| Cc1ccc2[nH]ncc2c1-c1cc(-c2cccc(OCc3ccnnc3)n2)nc(C(N)=O)c1N [Compound 326] | 134 | 5 | – | – | – |
| Cc1ccc2[nH]ncc2c1-c1nc(-c2ccccc2NC(=O)C2CC(F)(F)C2)nc(C(N)=O)c1N [Compound 415] | – | 8 | 210 | – | – |
| Cc1ccc(O)cc1-c1nc(-c2ccnc(N)c2)nc(C(N)=O)c1N [Compound 4] | 943 | 10 | – | – | – |
| Cc1ccc2[nH]ncc2c1-c1nc(-c2cc(F)ccc2NC(=O)C2(C)CC2)nc(C(N)=O)c1N [Compound 447] | – | 3 | 5 | – | – |
| CNS(=O)(=O)c1ccccc1-c1nc(C(N)=O)c(N)c(-c2c(C)ccc3[nH]ncc23)n1 [Compound 795] | – | 2520 | – | – | > 10000 |
| Cc1ccc2[nH]ncc2c1-c1nc(-c2ccccc2C(F)F)nc(C(N)=O)c1N [Compound 414] | – | 122 | 2460 | – | – |
| Cc1ccc(O)c(C)c1-c1cc(-c2ccnc(N)c2)nc(C(N)=O)c1N [Compound 45] | – | 2 | – | 60 | – |
| Cc1ccc2[nH]ncc2c1-c1nc(-c2cccc3ncsc23)nc(C(N)=O)c1N [Compound 380] | 772 | 6 | – | – | – |
| Cc1ccc(O)c(C)c1-c1cc(-c2ccncn2)nc(C(N)=O)c1N [Compound 79] | – | 8 | – | 90 | – |
| Cc1ccc(O)c(C)c1-c1cc(-c2c[nH]cn2)nc(C(N)=O)c1N [Compound 43] | 336 | 6 | – | – | – |
| Cc1ccc2[nH]ncc2c1-c1nc(-c2ccccc2C(C)O)nc(C(N)=O)c1N (stereo not shown) [Compound 787] | – | 4 | 278 | – | – |
| Cc1ccc2[nH]ncc2c1-c1nc(-c2cccnc2Nc2ccccc2F)nc(C(N)=O)c1N [Compound 610] | – | 10 | 397 | – | – |
| Cc1ccc2[nH]ncc2c1-c1nc(-c2ccccc2NC(=O)C(C)(C)C)cc(C(N)=O)c1N [Compound 398] | – | 7 | 28 | – | – |

— patent US20250304537A1 (Repare Therapeutics Inc., priority 2022, published 2025)
